From patent publication US6737425B1, “N,N-substituted cyclic amine derivatives” (Eisai Co., Ltd., priority 1998, dated 2004)

What was measured:
[1] = test system: glutamic acid release from rat cerebral cortex slices; test: Inhibitory activity on glutamic acid release (cerebral cortex slices, high-conc. KCl); format: cell-based; details: glutamic acid release induced with 50 mM KCl, HPLC
Description: Inhibitory Activity on Glutamic Acid Release
Cerebral cortexes were isolated from SD strain male rats (8-week-old) and used to prepare 300 μm×300 μm slices by use of a slice chopper. The prepared slices were incubated at 37° C. for 30 minutes in solution C (120 mM NaCl, 4 mM KCl, 10 mM MgSO4, 16 mM NaHCO3, 10 mM glucose, 1 mM NaH2PO4, 10 mM HEPES-NaOH pH 7.4) in the presence of 95% O2/5% CO2. Thereafter, solution C was exchanged with fresh one, followed by further incubation for 30 minutes.
The cerebral cortex slices were incubated in a 24-wells plate for cell culture according to a multi-well method (Brain Res., 402, 255-263, 1987), and the release of glutamic acid was induced with 50 mM KCl. Solution D (120 mM NaCl, 4 mM KCl, 1.2 mM CaCl2, 1 mM MgSO4, 16 mM NaHCO3, 10 mM glucose, 1 mM NaH2PO4, 10 mM HEPES-NaOH pH 7.4) was aerated with 95% O2/5% CO2 and kept at 37° C. and used in this experiment. 50 mM KCl containing the same total amount of K^+ and Na^+ was prepared. Slices corresponding to 1 to 2 mg protein were placed on an upper cup provided with a mesh at the bottom, and 1.3 ml solution C or 50 mM KCl solution was introduced into a lower well, and the upper cup was transferred to a new well. 20 minutes before and 5 minutes after reaction was intiated, the test compound was added to solution D or 50 mM KCl.
Glutamic acid was quantified by HPLC using fluorescent etor (Ex. 330 nm Em. […]). The eluting solvent used was prepared by diluting 150 ml sodium citrate buffer for automatic amino acid analysis (Wako Pure Chemical Industries) 10-fold with distilled water, then adding MgCl2 thereto at the final concentration of 50 mM, and further diluting it twice with acetonitrile. The flow rate was 2.0 ml/min. The column used was Asahipak (ES-502N Denko, K. K.). The glutamic acid was converted into a derivative by addition, to 50 μl sample, of 50 μl deriving agent (10 mg o-phthalaldehyde/500 μl MeOH, 10 μl b-mercaptopropionic acid, 0.15 M sodium borate buffer pH 9.5, 100 μl) followed by stirring (Neuroscience Lett., 96, 202-206, 1989).

mice in a formalin test = test: Antalgic effect (II) on mice in a formalin test (comparison with morphine and indomethacin); format: in vivo; details: for average left hind leg-licking time, Mean: formalin 5 minutes later
Description: Antalgic Effect (II) on Mice in a Formalin Test
The typical example of the compound of the present invention (the compound in Example 1) was compared with morphine and indomethacin in the same manner as in Pharmacological Experimental Example 5 above.
20.4 mg of the compound of the present invention was weighed, and 10.2 ml of 5.28% mannitol was added thereto to prepare 2 mg/ml (20 mg/kg) solution. Then, 3.8 ml of 5.28% mannitol was added to 3.8 ml of the 2 mg/ml solution to prepare 1 mg/ml (10 mg/kg) solution. Finally, 2.5 ml of 5.28% mannitol was added to 2.5 ml of the 1 mg/ml solution to prepare 0.5 mg/ml (5 mg/kg) solution. The test compound was weighed and prepared on the day when the experiment was conducted.
b-1) Morphine 17.0 mg of morphine purchased as a reagent was weighed, and 5.67 ml physiological saline was added thereto to form 3 mg/ml (30 mg/kg) solution. Then, 2.6 ml physiological saline was added to 1.3 ml of the 3 mg/ml solution to prepare 1 mg/ml (10 mg/kg) solution. Finally, 2.1 ml physiological saline was added to 0.9 ml of the 1 mg/ml solution to prepare 0.3 mg/ml (3 mg/kg) solution. The test compound was weighed and prepared on the day when the experiment was conducted.
12.9 mg of indomethacin purchased as a reagent was weighed, and 12.9 ml of 0.5% methyl cellulose (MC) was added thereto to form 1 mg/ml (10 mg/kg) suspension. Then, 2.24 ml of 0.5% MC was added to 0.96 ml of the 1 mg/ml suspension to prepare 0.3 mg/ml (3 mg/kg) suspension. Finally, 1.6 ml of 0.5% MC was added to 0.8 ml of the 0.3 mg/ml suspension to prepare 0.1 mg/ml (1 mg/kg) suspension. The test compound was weighed and prepared on the day when the experiment was conducted.
The treatment group by the compound of the present invention consisted of 4 groups in total, that is, a control group, a 5 mg/kg compound administration group, a 10 mg/kg compound administration group, and a 20 mg/kg compound administration group, and each group consisted of 5 animals.
The control group was given 0.1 ml of 5.28% mannitol per 10 g of the body weight via the tail vein. The compound of the present invention was administered via the tail vein at each concentration (0.5 mg/ml, 1 mg/ml, and 2 mg/ml) in an volume of 0.1 ml per 10 g of the body weight into the 5 mg/kg group, 10 mg/kg group and 20 mg/kg group, respectively.
The treatment group by morphine consisted of 4 groups in total, that is, a control group, a 3 mg/kg morphine administration group, a 10 mg/kg morphine administration group, and a 30 mg/kg morphine administration group, and each group consisted of 5 animals.
The control group was orally given 0.1 ml of physiological saline per 10 g of the body weight. Morphine was orally administered at each concentration (0.3 mg/ml, 1 mg/ml, and 3 mg/ml) in a volume of 0.1 ml per 10 g of the body weight into the 3 mg/kg group, 10 mg/kg group and 30 mg/kg group, respectively.
The treatment group by indomethacin consisted of 4 groups in total, that is, a control group, a 1 mg/kg indomethacin administration group, a 3 mg/kg indomethacin administration group, and a 10 mg/kg indomethacin administration group, and each group consisted of 5 animals.
The control group was orally given 0.1 ml of 0.5% MC per 10 g of the body weight. Indomethacin was orally administered at each concentration (0.1 mg/ml, […], and 1 mg/ml) in a volume of 0.1 ml per 10 g of the body weight into the 1 mg/kg group, 3 mg/kg group and 10 mg/kg group, respectively.
5.28% mannitol was administered via the tail vein into each group given the compound of the present invention or into the control group, and the animals were placed in a transparent plastic observation cage. 5 minutes later, 20 μl of 3% formalin was subcutaneously administered into the bottom of the left hind leg of each mouse. The duration of the behavior of mouse's licking the left hind leg after administration of formalin was measured for 5 minutes and used as an indication of pain. The duration was expressed in second. […]

For `CC(C)C(C#N)(CCCN1CCN(CCOc2ccc(F)cc2)CC1)c1ccccc1` (centres unmarked) [Example 1, 1-[(4-Cyano-5-methyl-4-phenyl)hexyl]-4-[2-(4-fluorophenoxy)ethyl]piperazine], the IC50 [1] was 3.5 µM, the “average left hind leg-licking time, Mean” value (mice in a formalin test; 5 mg/kg i.v. (tail vein)) was 49.4 s and the “average left hind leg-licking time, Mean” value (mice in a formalin test; 10 mg/kg i.v. (tail vein)) was 23.6 s. For the same molecule, the “average left hind leg-licking time, Mean” value (mice in a formalin test; 20 mg/kg i.v. (tail vein)) was 2.2 s and the “antalgic effect in the formalin test” value (mice in a formalin test; overall conclusion of the comparison) was “excellent effect similar to that of morphine”.
